Data published in US20110045522A1, “METHODS FOR DIAGNOSING DIABETES AND DETERMINING EFFECTIVENESS OF TREATMENTS” (priority 2009, published 2011).

Assays:
[1] = system: INS-1E cells; details: reported in the literature; positive control; cited from earlier work
[2] = system: IL-1Ra production in human kidney proximal tubular cell line (HK-2); experiment: IL-1Ra production in HK-2 cell culture media, ELISA; type: cell-based; details: HK-2 cells; for concentration of IL-1Ra: FIG. 1B
Protocol: Human kidney proximal cell line is commercially available and may be purchased, for example, from American Type Culture Collection (ATCC) under the symbol HK-2.
The immortalized human kidney proximal tubular cell line (HK-2) was cultured in DMEM/F12 containing 2.50 g/l HEPES, 1.80 g/l sodium bicarbonate, 100 U/ml penicillin, […] streptomycin, and 10% FCS at 37° C. in 5% CO2. After being digested with 0.25% trypsin, 1×10^5 cells were grown in 50 ml plastic culture bottles. The cells were cultured overnight in DMEM/F12 5% FCS; then, media were changed to fresh DMEM/F12 5% FCS containing diacerin with various concentrations of 2.0 μg/ml, 2.5 μg/ml, 3.0 μg/ml, 5.0 μg/ml, 10 μg/ml, 20 μg/ml, and negative (5% FCS) controls. Cultures were continued for further time points of 0 hour, 0.5 hour, 1 hour, 3 hours, 5 hours, 8 hours, 16 hours, 32 hours, and 72 hours. Upon reaching each time point, the media were collected. The cell culture method is well explained in Yao, et al, Preventive Effects of Salvianolic Acid on Transforming Growth Factorb 1-Induced Epithelial-to-Mesenchymal Transition of Human Kidney Cells, Biol. Pharm. Bull. 2009, 32(5) 882-886.
The collected media at each time point and concentration were assayed for IL-1Ra concentrations using ELISA assays.

[3] = system: IL-1β; details: human OA cartilage and synovial tissue cultures; cited from earlier work
[4] = system: IL-1 receptor antagonist (IL-1Ra); details: cartilage culture media; cited from earlier work

Molecule: Exendin-4: positive control, reported to inhibit IL-1β-induced INS-1E cell apoptosis
- IL-1β-induced INS-1E cell apoptosis [1]: inhibit

Molecule: CC(=O)Oc1cccc2c1C(=O)c1c(OC(C)=O)cc(C(=O)O)cc1C2=O [diacerin, 4,5-bis(acetyloxy)-9,10-dioxo-2-anthracene carboxylic acid]
- concentration of IL-1Ra ([2]; 5 μg/ml diacerin, 16 hours treatment): approximately 0.8 pg/ml
- concentration of IL-1Ra ([2]; 10 μg/ml diacerin, 16 hours treatment): approximately 1.3 pg/ml
- concentration of IL-1Ra ([2]; 20 μg/ml diacerin, 16 hours treatment): approximately 4.2 pg/ml
- concentration at which IL-1Ra production was first observed ([2]; 16 hours treatment): 5 µg/mL
- effect on IL-1Ra production ([2]; 16 hours treatment): dose-dependently increased
- dose-dependent effect on production of IL-1Ra ([2]; 32 hours treatment): diminished
- dose-dependent effect on production of IL-1Ra ([2]; 72 hours treatment): diminished
- IL-1β production [3]: significantly inhibited
- IL-1Ra levels [4]: increased

Molecule: O=C(O)c1cc(O)c2c(c1)C(=O)c1cccc(O)c1C2=O [rhein, 9,10-dihydro-4,5-dihydroxy-9,10-dioxo-2-anthracenecarboxylic acid]
- IL-1β production [3]: significantly inhibited
- IL-1Ra levels [4]: increased
